Data from patent US20140308675A1, “MUTAGENICITY TEST METHOD USING MAMMALIAN CELLS” (NISSIN FOODS HOLDINGS CO., LTD., priority 2011, published 2014).
Entries after “also recorded” stand apart in the source; their conditions may differ.

What was measured:
[1] = test system: TK6 cells transfected with pGL4-p53R2×3-SV40-Luc2; experiment: Mutagenicity test: luciferase reporter, transient pGL4-p53R2×3-SV40-Luc2 transformant; format: cell-based, human; conditions: 0.003-0.7 μg/mL
Method: Wild-type p53 of a human lymphoblast cell line TK6 cell was confirmed to be normal by DNA sequencing (ABI Prism BigDye Terminater v3.0; manufactured by Applied Biosystems) using primers for sequencing 5′-ACACGCTTCCCTGGATTG-3′ (SEQ ID NO: 17) and 5′-[…]-3′ (SEQ ID NO: 18).
It should be noted that the amount of pGL4-p53R2×3-SV40-Luc2 for transfection was adjusted to 0.25 ng/well.
Next, after the removal of the medium, a cell lysis solution (manufactured by Promega) was added at 25 μl/well, and the whole was left to stand at room temperature for 15 minutes. The plate was set in a luminometer LB96P with an enzyme substrate automatic injector (manufactured by Berthold), and a substrate solution (manufactured by Promega) was automatically dispensed at 30 μL/well to measure luciferase activities.
Wild-type p53 of a human lymphoblast cell line TK6 was confirmed to be normal in the same manner as described above. […] It should be noted that the amount of pGL4-p53R2×3-SV40-Luc2 for transfection was adjusted to 0.25 ng/well.

[2] = test system: TK6 cells transfected with PGV-p53R2×3-Luc; experiment: Mutagenicity test: luciferase reporter, transient PGV-p53R2×3-Luc transformant; format: cell-based, human; conditions: TK6, PGV-p53R2×3-Luc
Method: Next, the same operation as described above was performed to measure luciferase activities except that the plasmid PGV-p53R2×3-Luc prepared in Example 1 of JP 4243716 B2 was used in place of pGL4-p53R2×3-SV40-Luc2.
(§1) Transfection with plasmid PGV-p53R2×3-Luc, culture, and luciferase activity measurement were performed in the same manner as in Reference Example 1 described above except that the transformant was cultured for the following culture time: 16 hours in TK6 cells; 24 hours in MCF-7, HepG2, A549, HCT116, and HEK293; and 18 hours in NB1RGB.

[3] = test system: MCF-7 cells transfected with pGL4-p53R2×3-SV40-Luc2; experiment: Luciferase reporter, pGL4-p53R2×3-SV40-Luc2 transformant of MCF-7; format: cell-based, human; conditions: MCF-7, pGL4-p53R2×3-SV40-Luc2; 8 hours after contact; FIG. 4
Text: (§2) The obtained various transformants of the MCF-7 cells, the HepG2 cells, the A549 cells, the HCT116 cells, the HEK293 cells, and the NB1RGB cells were used to measure luciferase activities in the same manner as in the TK6 cells.

[4] = test system: HepG2 cells transfected with pGL4-p53R2×3-SV40-Luc2; experiment: Luciferase reporter, pGL4-p53R2×3-SV40-Luc2 transformant of HepG2; format: cell-based, human; conditions: HepG2, pGL4-p53R2×3-SV40-Luc2; 8 hours after contact; FIG. 4
Text: as §2

[5] = test system: A549 cells transfected with pGL4-p53R2×3-SV40-Luc2; experiment: Luciferase reporter, pGL4-p53R2×3-SV40-Luc2 transformant of A549; format: cell-based, human; conditions: A549, pGL4-p53R2×3-SV40-Luc2; 8 hours after contact; FIG. 4
Text: as §2

[6] = test system: HCT116 cells transfected with pGL4-p53R2×3-SV40-Luc2; experiment: Luciferase reporter, pGL4-p53R2×3-SV40-Luc2 transformant of HCT116; format: cell-based, human; conditions: HCT116, pGL4-p53R2×3-SV40-Luc2; 8 hours after contact; FIG. 4
Text: as §2

[7] = test system: HEK293 cells transfected with pGL4-p53R2×3-SV40-Luc2; experiment: Luciferase reporter, pGL4-p53R2×3-SV40-Luc2 transformant of HEK293; format: cell-based, human; conditions: HEK293, pGL4-p53R2×3-SV40-Luc2; 8 hours after contact; FIG. 4
Text: as §2

[8] = test system: NB1RGB cells transfected with pGL4-p53R2×3-SV40-Luc2; experiment: Luciferase reporter, pGL4-p53R2×3-SV40-Luc2 transformant of NB1RGB; format: cell-based, human; conditions: 8 hours after contact, FIG. 4
Text: as §2

[9] = test system: MCF-7 cells transfected with PGV-p53R2×3-Luc; experiment: Luciferase reporter, PGV-p53R2×3-Luc transformant of MCF-7; format: cell-based, human; conditions: MCF-7, PGV-p53R2×3-Luc
Method: (§3) To the obtained various transformants of MCF-7, HepG2, A549, HCT116, HEK293, and NB1RGB, adriamycin dissolved in DMSO was added, followed by culture for 8 hours. After that, luciferase activities were measured in the same manner as in the TK6 cells.
as §1

[10] = test system: HepG2 cells transfected with PGV-p53R2×3-Luc; experiment: Luciferase reporter, PGV-p53R2×3-Luc transformant of HepG2; format: cell-based, human; conditions: HepG2, PGV-p53R2×3-Luc
Method: as §3, §1

[11] = test system: A549 cells transfected with PGV-p53R2×3-Luc; experiment: Luciferase reporter, PGV-p53R2×3-Luc transformant of A549; format: cell-based, human; conditions: A549, PGV-p53R2×3-Luc
Method: as §3, §1

[12] = test system: HCT116 cells transfected with PGV-p53R2×3-Luc; experiment: Luciferase reporter, PGV-p53R2×3-Luc transformant of HCT116; format: cell-based, human; conditions: HCT116, PGV-p53R2×3-Luc
Method: as §3, §1

[13] = test system: HEK293 cells transfected with PGV-p53R2×3-Luc; experiment: Luciferase reporter, PGV-p53R2×3-Luc transformant of HEK293; format: cell-based, human; conditions: HEK293, PGV-p53R2×3-Luc
Method: as §3, §1

[14] = test system: NB1RGB cells transfected with PGV-p53R2×3-Luc; experiment: Luciferase reporter, PGV-p53R2×3-Luc transformant of NB1RGB; format: cell-based, human
Method: as §3, §1

[15] = test system: stable expression cells TK6/p53R2×3-Luc2P; experiment: Mutagenicity test: luciferase reporter, stable expression cells TK6/p53R2×3-Luc2P
[16] = test system: cells TK6/p53R2×3-Luc2P/Rluc; experiment: Mutagenicity test with internal control, cells TK6/p53R2×3-Luc2P/Rluc; format: cell-based, human; conditions: 0.1-20 μg/mL; 6 hours; FIG. 11
Method: Next, in accordance with the method of Example 8, cells stably expressing Luc2P and Rluc were acquired and named TK6/p53R2×3-Luc2P/Rluc.
Next, the above-mentioned two kinds of cells were brought into contact with 5-aza-2′-deoxycytidine (5-aza-dC).
After the removal of the medium, the expression amount of the Luc2P gene was determined as a relative value to the expression amount of the Rluc gene. Specifically, through the use of a luminometer LB96P with an enzyme substrate automatic injector (manufactured by Berthold), first, a substrate solution for firefly luciferase measurement (manufactured by Promega) was dispensed at 30 μL/well to measure the expression amount of the Luc2P gene. After that, a substrate solution for Sea pansy luciferase measurement (manufactured by Promega) was further dispensed at 30 μL/well to determine the expression amount of the Rluc gene.

COc1cccc2c1C(=O)c1c(O)c3c(c(O)c1C2=O)C[C@@](O)(C(=O)CO)C[C@@H]3O[C@H]1C[C@H](N)[C@H](O)[C@H](C)O1 [adriamycin]
Luciferase activity (% of Solvent control) ([1]; contact for 4 hours): such an increase in luciferase activity due to an increase in concentration of adriamycin as to be sufficient for performing a mutagenicity test | Luciferase activity (% of Solvent control) ([1]; contact for 8 hours): very high luciferase activity | Luciferase activity (% of Solvent control) ([1]; dependence on concentration, FIG. 3): an increase in luciferase activity due to an increase in concentration of adriamycin | Luciferase activity (% of Solvent control) ([2]; 0.003-0.7 μg/mL, contact for 8 hours): very small luciferase activity; also recorded: only a slight increase in luciferase activity | Luciferase activity (% of Solvent control) ([2]; culture 16 hours, FIG. 6): high luciferase activity | Luciferase activity (% of Solvent control) [3]: only slight luciferase activity | Luciferase activity (% of Solvent control) [4]: only slight luciferase activity | Luciferase activity (% of Solvent control) [5]: only slight luciferase activity | Luciferase activity (% of Solvent control) [6]: only slight luciferase activity | Luciferase activity (% of Solvent control) [7]: only slight luciferase activity | Luciferase activity (% of Solvent control) [8]: only slight luciferase activity | Luciferase activity (% of Solvent control) ([9]; contact for 8 hours, FIG. 5): only a slight increase in luciferase activity | Luciferase activity (% of Solvent control) ([9]; culture 24 hours, FIG. 6): high luciferase activity | Luciferase activity compared with the other cells ([9]; culture 24 hours, FIG. 6): higher luciferase activities | Luciferase activity (% of Solvent control) ([10]; contact for 8 hours, FIG. 5): only a slight increase in luciferase activity | Luciferase activity (% of Solvent control) ([10]; culture 24 hours, FIG. 6): high luciferase activity | Luciferase activity compared with the other cells ([10]; culture 24 hours, FIG. 6): higher luciferase activities | Luciferase activity (% of Solvent control) ([11]; contact for 8 hours, FIG. 5): only a slight increase in luciferase activity | Luciferase activity (% of Solvent control) ([11]; culture 24 hours, FIG. 6): high luciferase activity | Luciferase activity (% of Solvent control) ([12]; contact for 8 hours, FIG. 5): only a slight increase in luciferase activity | Luciferase activity (% of Solvent control) ([12]; culture 24 hours, FIG. 6): high luciferase activity | Luciferase activity (% of Solvent control) ([13]; contact for 8 hours, FIG. 5): only a slight increase in luciferase activity | Luciferase activity (% of Solvent control) ([13]; culture 24 hours, FIG. 6): high luciferase activity | Luciferase activity (% of Solvent control) ([14]; contact for 8 hours, FIG. 5): only a slight increase in luciferase activity | Luciferase activity (% of Solvent control) ([14]; culture 18 hours, FIG. 6): high luciferase activity | Luciferase activity (% of Solvent control), time-dependent change ([15]; 0.2 μg/mL, 2, 4, 6 and 8 hours, FIG. 9): an increase in luciferase activity due to an increase in concentration of adriamycin | Luciferase activity (% of Solvent control) ([15]; 0.003-0.7 μg/mL, 6 hours, FIG. 10): an increase in luciferase activity due to an increase in concentration of adriamycin

Nc1ncn([C@H]2C[C@H](O)[C@@H](CO)O2)c(=O)n1 [5-aza-dC, 5-aza-2′-deoxycytidine]
Firefly luciferase (Luc2P) activity not corrected with Rluc activity (w/o internal control) [16]: an increase in measured value due to an increase in concentration of 5-aza-dC | Luc2P activity corrected with Rluc activity as an internal control (with internal control) [16]: no increase in measured value
